The source of these data is patent US8084621B2, “3-Pyrrolo[b]cyclohexylene-2-dihydroindolinone derivatives and uses thereof” (Jiangsu Simcere Pharmaceutical R&D Co. Ltd., priority 2006, dated 2011).

Molecules are shown by their SMILES.

What all share (assay type): cell-based
Assay [1] has as its system Human Gastric Cancer Cell Line (BGC). The assay is described as follows: Tumor cell proliferation assay (MTT), BGC. The conditions noted are these: concentration of 10^−5 mol/L, preliminary screening, 72 hours, read-out: Inhibition rate % BGC.
In assay [2] the test system is Human Pancreatic Carcinoma Cells (PANC-1). The assay is described as follows: Tumor cell proliferation assay (MTT), PANC-1. The conditions noted are these: concentration of 10^−5 mol/L, preliminary screening, 72 hours, read-out: Inhibition rate % PANC-1. The text has this: (§1) The assay used generally is the blue tetrazolium bromide (MTT) method. […] The amount of formazan can be detected by the microplate reader through the absorption value at 570 nm. The amount of formazan product generated is proportional to the number of living cells in the sample, so the OD value may reflect the number of living cells and the ability of a test drug to inhibit or kill cells. The MTT assay may be used in determining the ability of different compounds of the present invention to inhibit one or more cancer cells proliferation. Similar assays can be designed along the same lines for any cancer cell using techniques well known in the art.
(§2) The assay used generally is the blue tetrazolium bromide (MTT) method. […] Intracellular purple formazan salt crystals can be solved in DMSO and the absorption value at 570 nm is detected by the microplate reader, then the number of living cells can be detected indirectly. So MTT assay may be used to determine the ability of a compound of the present invention to inhibit cell proliferation. Similar assays can be designed along the same lines for any cancer cell using techniques well known in the art.
2.2.4 Human Pancreatic Carcinoma Cells (PANC-1)
(§3) The cells of the 2.2.1, 2.2.2, 2.2.3, 2.2.4, 2.2.5 cultured with RPMI 1640 containing 12% calf serum in the condition of 37° C., 5% CO2.
(§4) 2.3.1 Cell seeding: Trypsinize the cell by 0.05% trypsin-EDTA and add RPMI 1640 medium (DMEM or 5A) containing 12% calf serum. Count the number, then dilute to 1.67×10^4/ml. Add 180 ul/well to the 96 well plate (3000 cells/well).
(§5) 2.3.2 Culture: cells are incubated for 24 hours at 37° C. under 5% CO2.
(§6) 2.3.3 Preliminary screening: The compounds are firstly diluted to 0.1 mol/L with DMSO, and then diluted to three concentrations of 10^−5 mol/L, 10^−6 mol/L and 10^−7 mol/L. Add 20 ul test compounds to the 96 well plate and incubate for 72 hours. Each group has three parallel wells and all experiments repeat three times. Each inhibition ratio is calculated, then an average value of three times is taken as the measured value. 2.3.4 Staining 2.3.4.1 Attached cell: add 20 ul/well MTT to the 96-well plates; incubate for 4 hours in the incubator. Pour out the culture medium in the well and add 100 ul/well DMSO. Shake the plate for 5 min. 2.3.4.2 Suspension cell: add 20 ul/well MTT to the 96-well plates; incubate for 4 hours in the incubator. Add 50 ul/well 20% SDS and incubate for overnight in the incubator. 2.3.5 Reading the plates: read the absorbance A570-A630 with the Infinite M200 microtiter plate reader. Calculate the inhibition ratio of the test compounds. 2.3.6 Secondary screening: the compounds whose inhibition ratio is greater than 50% at the concentrations of 10^−5 mol/L in the preliminary screening will be picked out for Secondary screening. Dilute these compounds to ten concentrations: 10^−5 mol/L, 0.5×10^−5 mol/L, 10^−6 mol/L, 0.8×10^−6 mol/L, 0.6×10^−6 mol/L, 0.4×10^−6 mol/L, 0.2×10^−6 mol/L, 10^−7 mol/L, 0.8×10^−7 mol/L and 0.4×10^−7 mol/L. Add 20 ul test compound solution to the 96 well plate and incubate for 48 hours. Each group has three parallel wells and all experiments repeat for three times. Read the plates and calculate the inhibition ratio according to the preliminary screening method. 2.3.7 Calculate the Inhibition Ratio of Cell Proliferation and the IC50
(§7) According to the inhibition ratio of cell proliferation at the different concentrations of the compound, inhibition ratio of 50% of the test compound is calculated through the logarithm of the concentration of the compound with the Logit [I] linear regression, and an average value of three times is taken as the measured value of a sample.

Assay [3] deals with Human Colon Cancer Cell Line (HCT 116). The assay is described as follows: Tumor cell proliferation assay (MTT), HCT116. The conditions noted are these: concentration of 10^−5 mol/L, preliminary screening, 72 hours, read-out: Inhibition rate % HCT116.
Source text: as §1, §2
2.2.12 Human Colon Cancer Cell Line (HCT 116);
The cells of 2.2.11, 2.2.12, 2.2.13 were cultured in MC COYS 5-A medium containing 12% fetal bovine serum in the condition of 37° C., 5% CO2.
as §4, §5, §6, §7

Assay [4] relates to Human Non-Small Cell Lung Cancer Cell Line (A549). The assay can be described thus: Tumor cell proliferation assay (MTT), A549. The conditions noted are these: concentration of 10^−5 mol/L, preliminary screening, 72 hours, read-out: Inhibition rate % A549.
Source text: as §1, §2
2.2.2 Human Non-Small Cell Lung Cancer Cell Line (A549)
as §3, §4, §5, §6, §7

In assay [5] the test system is Human Bladder Cancer Cell Line (T24). The assay can be described thus: Tumor cell proliferation assay (MTT), T24. The conditions noted are these: concentration of 10^−5 mol/L, preliminary screening, 72 hours, read-out: Inhibition rate % T24.
Source text: as §1, §2
2.2.7 Human Bladder Cancer Cell Line (T24);
The cells of 2.2.6, 2.2.7 cultured in RPMI 1640 medium containing 12% fetal bovine serum in the condition of 37° C., 5% CO2.
as §4, §5, §6, §7

The subject of assay [6] is Human Hepatocellular Carcinoma Cell Line (HEPG2). The assay is described as follows: Tumor cell proliferation assay (MTT), HEPG2. The conditions noted are these: concentration of 10^−5 mol/L, preliminary screening, 72 hours, read-out: Inhibition rate % HEPG2.
Source text: as §1, §2
2.2.8 Human Hepatocellular Carcinoma Cell Line (HEPG2);
The cells of 2.2.8, 2.2.9 cultured in DMEM/High glucose medium containing 12% calf serum in the condition of 37° C., 5% CO2.
as §4, §5, §6, §7

The subject of assay [7] is Human Pancreatic Carcinoma Cell Line (BXPC-3). The assay is described as follows: Tumor cell proliferation assay (MTT), BXPC-3. The conditions noted are these: concentration of 10^−5 mol/L, preliminary screening, 72 hours, read-out: Inhibition rate % BXPC-3.
Assay [8] deals with Human Colon Cancer Cell Line (HT-29). The assay can be described thus: Tumor cell proliferation assay (MTT), HT29. The conditions noted are these: concentration of 10^−5 mol/L, preliminary screening, 72 hours, read-out: Inhibition rate % HT29.
For assay [9], the system named is Human Colon Cancer Cell Line (CACO-2). The assay can be described thus: Tumor cell proliferation assay (MTT), CACO-2. The conditions noted are these: concentration of 10^−5 mol/L, preliminary screening, 72 hours, read-out: Inhibition rate % CACO-2.
Source text: as §1, §2
2.2.10 Human Colon Cancer Cell Line (CACO-2)
The cell of 2.2.10 cultured in DMEM/High glucose medium containing 12% fetal bovine serum in the condition of 37° C., 5% CO2.
as §4, §5, §6, §7

For the compound `Cc1[nH]c2c(c1C(=O)N1CCOCC1)CCC/C2=C1/C(=O)Nc2ccccc21` [I-12, 2-methyl-3-(morpholine-4-carbonyl)-7-[1,2-dihydro-2-oxo-3H-indol-(Z)-3-ylidene]-4,5,6,7-tetrahydro-1H-indole], the inhibition at 10 µM in assay [1] came out at 31.9%; in assay [2], 23.3%; in [3], 36.5%; in assay [4], 1.1%; in [5] it was 14.6%; in [6] it was 12.8%. In addition, the figures for the inhibition at 10 µM in [7], in assay [8] and in assay [9] were 29.5%, 78.4% and 11.7%, respectively.
